According to ChEMBL document CHEMBL2390874, “Synthesis, antibacterial activity and cytotoxicity of new fused pyrazolo[1,5-a]pyrimidine and pyrazolo[5,1-c][1,2,4]triazine derivatives from new 5-aminopyrazoles” (Eur J Med Chem, 2013):
Values after ≈ are worked out from the molar mass of the structure shown. Active and inactive are the calls of the source. The calls are words filed in the database; no cut-off is given here.

Experiments:
Salmonella typhimurium = experiment: Antibacterial activity against Salmonella typhimurium ATCC 51812 assessed as growth inhibition at 1 mg/ml after 24 hrs by agar diffusion method; format: functional, organism-based; details: Salmonella enterica subsp. enterica serovar Typhimurium
Enterococcus faecalis = experiment: Antibacterial activity against Enterococcus faecalis ATCC 14506 assessed as growth inhibition at 1 mg/ml after 24 hrs by agar diffusion method; format: functional, organism-based
[1] = test system: Staphylococcus epidermidis; experiment: Antibacterial activity against Staphylococcus epidermidis ATCC 12228 assessed as growth inhibition at 1 mg/ml after 24 hrs by agar diffusion method; format: functional, organism-based
Staphylococcus aureus [2] = experiment: Antibacterial activity against methicillin-resistant Staphylococcus aureus ATCC 43300 assessed as growth inhibition at 1 mg/ml after 24 hrs by agar diffusion method; format: functional, organism-based
[3] = Selectivity index, ratio of CC50 for african green monkey vero cells to MIC for Escherichia coli ATCC 10536; format: functional
[4] = Selectivity index, ratio of CC50 for african green monkey vero cells to MIC for Bacillus subtilis ATCC 11774; format: functional
[5] = Selectivity index, ratio of CC50 for african green monkey vero cells to MIC for Staphylococcus aureus ATCC 25923; format: functional
[6] = Cytotoxicity against african green monkey vero cells by MTT assay; format: cell-based; details: chlorocebus sabaeus
Staphylococcus aureus [7] = experiment: Bactericidal activity against Staphylococcus aureus ATCC 25923 by broth dilution method; format: functional
Escherichia coli [8] = experiment: Bactericidal activity against Escherichia coli ATCC 10536 by broth dilution method; format: functional
Bacillus subtilis [9] = experiment: Bactericidal activity against Bacillus subtilis ATCC 11774 by broth dilution method; format: functional
Escherichia coli [10] = experiment: Antibacterial activity against Escherichia coli ATCC 10536 assessed as growth inhibition by broth dilution method; format: functional
Staphylococcus aureus [11] = experiment: Antibacterial activity against Staphylococcus aureus ATCC 25923 assessed as growth inhibition by broth dilution method; format: functional
Serratia marcescens = experiment: Antibacterial activity against Serratia marcescens ATCC 13880 assessed as growth inhibition at 1 mg/ml after 24 hrs by agar diffusion method; format: functional; details: ATCC 13880, 24 h, read-out: DIZ
Bacillus subtilis [12] = experiment: Antibacterial activity against Bacillus subtilis ATCC 11774 assessed as growth inhibition by broth dilution method; format: functional
Pseudomonas aeruginosa [13] = experiment: Antibacterial activity against Pseudomonas aeruginosa ATCC 10145 assessed as growth inhibition at 1 mg/ml after 24 hrs by agar diffusion method; format: functional; details: ATCC 10145, 24 h, read-out: DIZ
Escherichia coli [14] = experiment: Antibacterial activity against Escherichia coli ATCC 10536 assessed as growth inhibition at 1 mg/ml after 24 hrs by agar diffusion method; format: functional; details: ATCC 10536, 24 h, read-out: DIZ
Staphylococcus aureus [15] = experiment: Antibacterial activity against Staphylococcus aureus ATCC 25923 assessed as growth inhibition at 1 mg/ml after 24 hrs by agar diffusion method; format: functional; details: ATCC 25923, 24 h, read-out: DIZ
Bacillus subtilis [16] = experiment: Antibacterial activity against Bacillus subtilis ATCC 11774 assessed as growth inhibition at 1 mg/ml after 24 hrs by agar diffusion method; format: functional; details: ATCC 11774, 24 h, read-out: DIZ
[17] = Selectivity index, ratio of CC50 for african green monkey vero cells to MIC for Pseudomonas aeruginosa ATCC 10145; format: functional
Pseudomonas aeruginosa [18] = experiment: Bactericidal activity against Pseudomonas aeruginosa ATCC 10145 by broth dilution method; format: functional
Pseudomonas aeruginosa [19] = experiment: Antibacterial activity against Pseudomonas aeruginosa ATCC 10145 assessed as growth inhibition by broth dilution method; format: functional

## CSc1c(C#N)c(N)nc2c(C#N)c(N3CCOCC3)nn12
Salmonella typhimurium
  growth inhibition (GI): inactive
Enterococcus faecalis
  growth inhibition (GI): inactive
[1]
  growth inhibition (GI): inactive
Staphylococcus aureus [2]
  growth inhibition (GI): inactive

## Cc1cc(C)n2nc(N3CCOCC3)c(C#N)c2n1
Salmonella typhimurium
  growth inhibition (GI): inactive
Enterococcus faecalis
  growth inhibition (GI): inactive
[1]
  growth inhibition (GI): inactive
Staphylococcus aureus [2]
  growth inhibition (GI): inactive

## N#Cc1c(N)nc2c(C#N)c(N3CCOCC3)nn2c1N1CCOCC1
Salmonella typhimurium
  growth inhibition (GI): inactive
Enterococcus faecalis
  growth inhibition (GI): inactive
[1]
  growth inhibition (GI): inactive
Staphylococcus aureus [2]
  growth inhibition (GI): inactive

## N#Cc1c(N)nc2c(C#N)c(N3CCCC3)nn2c1N1CCOCC1
Salmonella typhimurium
  growth inhibition (GI): inactive
Enterococcus faecalis
  growth inhibition (GI): inactive
[1]
  growth inhibition (GI): inactive
Staphylococcus aureus [2]
  growth inhibition (GI): inactive

## Cc1cc(O)n2nc(N3CCCCC3)c(C#N)c2n1
Salmonella typhimurium
  growth inhibition (GI): inactive
Enterococcus faecalis
  growth inhibition (GI): inactive
[1]
  growth inhibition (GI): inactive
Staphylococcus aureus [2]
  growth inhibition (GI): inactive

## CC(=O)n1nc(N2CCCC2)c(C#N)c1N
[3]
  Selectivity Index: 0.18
[4]
  Selectivity Index: 0.18
[5]
  Selectivity Index: 0.18
Salmonella typhimurium
  growth inhibition (GI): inactive
Enterococcus faecalis
  growth inhibition (GI): inactive
[1]
  growth inhibition (GI): inactive
[6]
  CC50: 2.81 mg/mL (≈ 12.8 mM)
Staphylococcus aureus [2]
  growth inhibition (GI): inactive
Staphylococcus aureus [7]
  MBC: > 16 mg/mL
Escherichia coli [8]
  MBC: 16 mg/mL (≈ 73 mM)
Bacillus subtilis [9]
  MBC: 16 mg/mL (≈ 73 mM)
Escherichia coli [10]
  MIC: 8 mg/mL (≈ 36.5 mM)
Staphylococcus aureus [11]
  MIC: 16 mg/mL (≈ 73 mM)
Serratia marcescens
  zone of inhibition at 1000 µg/mL: 6 mm
Bacillus subtilis [12]
  MIC: 16 mg/mL (≈ 73 mM)
Pseudomonas aeruginosa [13]
  zone of inhibition at 1000 µg/mL: 6 mm
Escherichia coli [14]
  zone of inhibition at 1000 µg/mL: 16 mm
Staphylococcus aureus [15]
  zone of inhibition at 1000 µg/mL: 14 mm
Bacillus subtilis [16]
  zone of inhibition at 1000 µg/mL: 14 mm

## CSc1c(C#N)c(N)nc2c(C#N)c(N3CCCC3)nn12
Salmonella typhimurium
  growth inhibition (GI): inactive
Enterococcus faecalis
  growth inhibition (GI): inactive
[1]
  growth inhibition (GI): inactive
Staphylococcus aureus [2]
  growth inhibition (GI): inactive

## CC(=O)c1nnc2c(C#N)c(N3CCOCC3)nn2c1C
Salmonella typhimurium
  growth inhibition (GI): inactive
Enterococcus faecalis
  growth inhibition (GI): inactive
[1]
  growth inhibition (GI): inactive
Staphylococcus aureus [2]
  growth inhibition (GI): inactive

## Cc1cc(O)n2nc(N3CCOCC3)c(C#N)c2n1
[17]
  Selectivity Index: 0.01
[3]
  Selectivity Index: 0
[4]
  Selectivity Index: 0.01
[5]
  Selectivity Index: 0
Salmonella typhimurium
  growth inhibition (GI): inactive
Enterococcus faecalis
  growth inhibition (GI): inactive
[1]
  growth inhibition (GI): inactive
[6]
  CC50: 0.063 mg/mL (≈ 0.243 mM)
Staphylococcus aureus [2]
  growth inhibition (GI): inactive
Pseudomonas aeruginosa [18]
  MBC: > 16 mg/mL
Staphylococcus aureus [7]
  MBC: 16 mg/mL (≈ 61.7 mM)
Escherichia coli [8]
  MBC: > 16 mg/mL
Bacillus subtilis [9]
  MBC: 16 mg/mL (≈ 61.7 mM)
Escherichia coli [10]
  MIC: 16 mg/mL (≈ 61.7 mM)
Pseudomonas aeruginosa [19]
  MIC: 8 mg/mL (≈ 30.9 mM)
Staphylococcus aureus [11]
  MIC: 16 mg/mL (≈ 61.7 mM)
Serratia marcescens
  zone of inhibition at 1000 µg/mL: 6 mm
Bacillus subtilis [12]
  MIC: 8 mg/mL (≈ 30.9 mM)
Pseudomonas aeruginosa [13]
  zone of inhibition at 1000 µg/mL: 7 mm
Escherichia coli [14]
  zone of inhibition at 1000 µg/mL: 10 mm
Staphylococcus aureus [15]
  zone of inhibition at 1000 µg/mL: 9 mm
Bacillus subtilis [16]
  zone of inhibition at 1000 µg/mL: 9 mm

## CC(=O)c1nnc2c(C#N)c(N3CCCCC3)nn2c1C
[3]
  Selectivity Index: 0.02
[4]
  Selectivity Index: 0.02
[5]
  Selectivity Index: 0.02
Salmonella typhimurium
  growth inhibition (GI): inactive
Enterococcus faecalis
  growth inhibition (GI): inactive
[1]
  growth inhibition (GI): inactive
[6]
  CC50: 0.312 mg/mL (≈ 1.1 mM)
Staphylococcus aureus [2]
  growth inhibition (GI): inactive
Staphylococcus aureus [7]
  MBC: 16 mg/mL (≈ 56.3 mM)
Escherichia coli [8]
  MBC: 16 mg/mL (≈ 56.3 mM)
Bacillus subtilis [9]
  MBC: 16 mg/mL (≈ 56.3 mM)
Escherichia coli [10]
  MIC: 16 mg/mL (≈ 56.3 mM)
Staphylococcus aureus [11]
  MIC: 16 mg/mL (≈ 56.3 mM)
Serratia marcescens
  zone of inhibition at 1000 µg/mL: 6 mm
Bacillus subtilis [12]
  MIC: 16 mg/mL (≈ 56.3 mM)
Pseudomonas aeruginosa [13]
  zone of inhibition at 1000 µg/mL: 6 mm
Escherichia coli [14]
  zone of inhibition at 1000 µg/mL: 8 mm
Staphylococcus aureus [15]
  zone of inhibition at 1000 µg/mL: 9 mm
Bacillus subtilis [16]
  zone of inhibition at 1000 µg/mL: 10 mm

## Cc1cc(O)n2nc(N3CCCC3)c(C#N)c2n1
Salmonella typhimurium
  growth inhibition (GI): inactive
Enterococcus faecalis
  growth inhibition (GI): inactive
[1]
  growth inhibition (GI): inactive
Staphylococcus aureus [2]
  growth inhibition (GI): inactive

## N#Cc1c(N)nc2c(C#N)c(N3CCOCC3)nn2c1N1CCCCC1
Salmonella typhimurium
  growth inhibition (GI): inactive
Enterococcus faecalis
  growth inhibition (GI): inactive
[1]
  growth inhibition (GI): inactive
Staphylococcus aureus [2]
  growth inhibition (GI): inactive
